Patent publication US8940769B2, “Biaryl benzoimidazole derivatives and pharmaceutical composition comprising the same” (Daewoong Pharmaceutical Co., Ltd., priority 2006, dated 2015)

Legend:
[1] = molecular target: T1, human vanilloid receptor VR-1 (hVR1) (Homo sapiens, UniProt Q8NER1); test: Calcium influx test of vanilloid receptor (capsaicin-induced, Fluo-3/AM, hVR1-HEK293 cells); type: cell-based; conditions: for IC50: calcium influx induced by 1 μM capsaicin, read-out: Inhibitory effect IC50 (nM) on calcium influx; for inhibition at 0.2 µM: single concentration of compound 200 nM, 1 μM capsaicin, read-out: Inhibitory effect (%) on calcium influx
T1 construct: expressed in transfected cells; host or cells: HEK293 Tet-on cells (hVR1-HEK293), expression induced with doxycycline
T1 sequence (Q8NER1 whole entry): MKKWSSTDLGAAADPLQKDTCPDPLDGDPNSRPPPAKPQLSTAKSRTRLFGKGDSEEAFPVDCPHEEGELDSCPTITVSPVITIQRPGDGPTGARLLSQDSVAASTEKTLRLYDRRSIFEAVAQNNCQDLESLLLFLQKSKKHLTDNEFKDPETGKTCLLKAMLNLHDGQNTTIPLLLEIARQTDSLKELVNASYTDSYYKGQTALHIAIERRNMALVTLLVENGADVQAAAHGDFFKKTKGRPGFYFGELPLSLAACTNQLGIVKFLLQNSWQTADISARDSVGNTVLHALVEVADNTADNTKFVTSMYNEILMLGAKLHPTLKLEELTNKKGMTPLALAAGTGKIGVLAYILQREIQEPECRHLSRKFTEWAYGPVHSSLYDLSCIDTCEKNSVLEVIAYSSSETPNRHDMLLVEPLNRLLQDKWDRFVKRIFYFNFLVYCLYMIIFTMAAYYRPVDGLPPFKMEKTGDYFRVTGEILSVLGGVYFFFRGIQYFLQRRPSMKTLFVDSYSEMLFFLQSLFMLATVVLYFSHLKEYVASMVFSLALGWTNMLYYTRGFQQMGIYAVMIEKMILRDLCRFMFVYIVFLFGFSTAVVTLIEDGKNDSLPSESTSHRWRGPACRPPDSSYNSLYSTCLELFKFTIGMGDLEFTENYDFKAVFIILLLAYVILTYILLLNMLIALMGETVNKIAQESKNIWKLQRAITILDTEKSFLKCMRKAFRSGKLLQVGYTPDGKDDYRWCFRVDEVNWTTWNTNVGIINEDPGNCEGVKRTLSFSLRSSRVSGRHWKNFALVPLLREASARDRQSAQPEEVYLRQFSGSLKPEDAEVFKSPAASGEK
Description: In order to measure an activity of the biaryl benzoimidazole derivative of the invention as an antagonist, a calcium influx test was performed.
An hVR1-HEK293 cell line is a cell line, in which a Human Embryonic Kidney (HEK) 293 Tet-on cell is transformed with a human vanilloid-1 gene (pTRE2hyg-hVR1, 7.8 kb). The cell line can regulate a VR-1 expression, depending on the administration of a tetracycline analogue, doxycycline. At two days before the calcium influx test, the cell line was cultured in media containing doxycycline to induce the VR-1 expression, and then used. First, the hVR1-HEK293 cells were cultured in T75 flasks to have a density of about 80%, and then detached from the bottom of the flasks by using trypsin. The detached cells were centrifuged and collected. Then, the cells were suspended in media containing 1 μg/mL doxycycline, and diluted to have a concentration of 2×10^5 to 4×10^5 cells/mL. 100 μL of the suspended cells were added to each well of 96-well black plate, cultured at 37° C. and 5% CO2 cell incubator for two days, and then used in the calcium influx test.
The compound was dissolved in dimethyl sulfoxide (DMSO), and then used for the calcium influx test.
In order to measure the calcium influx […], the cells were cultured in a solution containing Fluo-3/AM, which is a calcium indicator, at 37° C. for 90 minutes, so as to be permeated by a fluorescent dye. […] 193 μL D-PBS were added to each well, and then the compound was added thereto in various concentrations. To measure an activity as an antagonist, the cells were treated with 1 μM capsaicin to stimulate the calcium influx. The inhibitory effect of the compound when calcium influx was induced by 1 μM capsaicin was measured depending on its concentration using a fluorescence spectrometer, and the obtained data were substituted into a hill equation to analyze the values.
The inhibitory effect on calcium influx was measured with a single concentration of the compounds of the invention (200 nM), and the result thereof are shown in Table 2.

[2] = system: ICR male mouse; test: PBQ-induced writhing test (analgesic efficacy); type: in vivo; conditions: oral administration, PBQ 0.02% intraperitoneal
Description: In order to test analgesic efficacy of the biaryl benzoimidazole derivative of the invention, a PBQ-induced writhing test was performed using a mouse.
A 5-week-old ICR male mouse was used as an experimental animal, and PBQ (phenyl-p-quinone, 0.02%) was used as a chemical stimulator. 20 mg of the test material per mouse body weight were suspended in 10 mL solvent of Na-CMC and saline solution, and then used. […] Between 5 to 10 minutes after administration, the writhing frequency of each subject of the experimental groups was measured, and for the measurement of the analgesic efficacy, the frequency reduction was calculated as compared to a control group by using Equation 1. Inhibitory effect (%)=[(a control group administered with excipient−a group administered with test material)/a control group administered with excipient]×100 [Equation 1]

CC(C)(C)c1ccc2nc(-c3ccc(-c4ncc(CO)cc4Cl)cc3)[nH]c2c1 [Compound 29, {6-[4-(6-tert-butyl-1H-benzoimidazol-2-yl)-phenyl]-5-chloro-pyridin-3-yl}-methanol]
IC50 [1]: 15.9 nM
inhibition at 0.2 µM [1]: 74.8%
Inhibitory effect (%) on writhing frequency ([2]; (1 hour)): 59 (1 hour) %

COC(=O)c1cnc(-c2ccc(-c3nc4ccc(C(F)(F)F)cc4[nH]3)cc2)c(Cl)c1 [Compound 48, 5-chloro-6-[4-(6-trifluoromethyl-1H-benzoimidazol-2-yl)-phenyl]-nicotinic acid methyl ester]
IC50 [1]: 55.1 nM
inhibition at 0.2 µM [1]: 38.7%
Inhibitory effect (%) on writhing frequency ([2]; (1 hour)): 41 (1 hour) %

COC(=O)c1cnc(-c2ccc(-c3nc4ccc(C(C)(C)C)cc4[nH]3)cc2)c(Cl)c1 [Compound 49, 6-[4-(6-tert-butyl-1H-benzoimidazol-2-yl)-phenyl]-5-chloro-nicotinic acid methyl ester]
IC50 [1]: 23.1 nM
inhibition at 0.2 µM [1]: 85%
Inhibitory effect (%) on writhing frequency ([2]; (2 hour)): 49 (2 hour) %

COC(=O)c1cnc(-c2ccc(-c3nc4ccc(Br)cc4[nH]3)cc2)c(Cl)c1 [Compound 50, 6-[4-(6-bromo-1H-benzoimidazol-2-yl)-phenyl]-5-chloro-nicotinic acid methyl ester]
IC50 [1]: 62.3 nM
inhibition at 0.2 µM [1]: 46.4%
Inhibitory effect (%) on writhing frequency ([2]; (1 hour)): 19 (1 hour) %

CC(=O)OCc1cnc(-c2ccc(-c3nc4ccc(C(F)(F)F)cc4[nH]3)cc2)c(Cl)c1 [Compound 53, acetic acid 5-chloro-6-[4-(6-trifluoromethyl-1H-benzoimidazol-2-yl)-phenyl]-pyridin-3-yl methyl ester]
IC50 [1]: 90.4 nM
inhibition at 0.2 µM [1]: 37.4%
Inhibitory effect (%) on writhing frequency ([2]; (2 hour)): 34 (2 hour) %

COC(=O)c1cnc(-c2ccc(-c3nc4ccc(N5CCN(C)CC5)cc4[nH]3)nc2)c(Cl)c1 [Compound 72, 3-chloro-6′-[6-(4-methyl-piperazin-1-yl)-1H-benzoimidazol-2-yl]-[2,3′]bipyridinyl-5-carboxylic acid methyl ester]
inhibition at 0.2 µM [1]: -2.9%
Inhibitory effect (%) on writhing frequency ([2]; (0.5 hour)): 31 (0.5 hour) %

COC(=O)c1cnc(-c2ccc(-c3nc4ccc(C(F)(F)F)cc4[nH]3)nc2)c(Cl)c1 [Compound 73, 3-chloro-6′-(6-trifluoromethyl-1H-benzoimidazol-2-yl)-[2,3′]bipyridinyl-5-carboxylic acid methyl ester]
IC50 [1]: 55.2 nM
inhibition at 0.2 µM [1]: 56.1%
Inhibitory effect (%) on writhing frequency ([2]; (1 hour)): 39 (1 hour) %

CCNC(=O)c1cnc(-c2ccc(-c3nc4ncc(Br)cc4[nH]3)nc2)c(Cl)c1 [Compound 100, 6′-(6-bromo-1H-imidazo[4,5-b]pyridin-2-yl)-3-chloro-[2,3′]bipyridinyl-5-carboxylic acid ethyl amide]
inhibition at 0.2 µM [1]: 13%

CCNC(=O)c1cnc(-c2ccc(-c3nc4c(Br)cc(C(F)(F)F)cc4[nH]3)nc2)c(Cl)c1 [Compound 101, 6′-(4-bromo-6-trifluoromethyl-1H-benzoimidazol-2-yl)-3-chloro-[2,3′]bipyridinyl-5-carboxylic acid ethyl amide]
inhibition at 0.2 µM [1]: 3.7%

CCNC(=O)c1cnc(-c2ccc(-c3nc4c(Br)cc(Br)cc4[nH]3)nc2)c(Cl)c1 [Compound 102, 3-chloro-6′-(4,6-dibromo-1H-benzoimidazol-2-yl)-[2,3′]bipyridinyl-5-carboxylic acid ethyl amide]
inhibition at 0.2 µM [1]: 13.2%
